Values after ≈ are worked out from the molar mass of the structure shown.
Assays:
Experiment in all cases: in vitro antibacterial MIC, agar plate dilution
Format in all cases: cell-based
[1] = test system: Staphylococcus aureus CMC 83-127; settings: Staphylococcus aureus, CMC83127, 18 h, 35° C., read-out: MIC
Summary of the method: (§1)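 Agar plate dilution on Mueller-Hinton agar, inoculum approximately 10^4 CFU per organism applied with a Steers replicator. MIC (mcg/ml) is the lowest compound concentration inhibiting visible growth after 18 hours at 35° C.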

[2] = test system: Escherichia coli CMC 84-16; settings: Escherichia coli, CMC8416, 18 h, 35° C., read-out: MIC
Summary of the method: as §1

[3] = test system: Staphylococcus Spp saprophiticus VGH 84-50; settings: 18 hours, 35° C., read-out: MIC
Summary of the method: as §1

[4] = test system: Escherichia coli PRNT 311; settings: PRNT311, 18 hours, 35° C., read-out: MIC
Summary of the method: as §1

Which results are given for O=C(O)c1cn(C2CC2)c2cc(N3CCNC(c4ccco4)C3)c(F)cc2c1=O (stereo not shown) [Example 62, 1-Cyclopropyl-6-fluoro-7-[3-(2-furanvl)-1-piperazinyl]-1,4-dihydro-4-oxo-3-quinolinecarboxylic acid]?
MIC [1]: 0.008 µg/mL (≈ 0.0201 µM); MIC [2]: 0.03 µg/mL (≈ 0.0755 µM); MIC [3]: 0.12 µg/mL (≈ 0.302 µM); MIC [4]: 0.06 µg/mL (≈ 0.151 µM)

From patent publication US5210193A, “Piperazine derivatives” (American Cyanamid Company, priority 1990, dated 1993)
